Patent US5079257A, “Indoloquinone compounds” (priority 1986, dated 1992)
Like-named read-outs stand apart in the source and are kept apart here.

Assays:
Breast line = assay: Human tumour xenograft in nude mice: breast; format: in vivo; details: i.v. days 46 and 53, 4 and 6 mg/kg
Excerpt: Based on the results obtained during the in vitro experiments indoloquinone E.O. 9 was selected for an extended in vivo study. The activity of this compound has been determined in four human tumour xenografts transplanted in nude mice.
(§1) The xenograft experiments have been carried by Dr. H. H. Fiebig of the University of Freiburg [Lung-NSCLC (LXGF) line, Renal line, Breast line; See: H. H. Fiebig et al., Behring Inst. Mitt., 74 343] and by Dr. E. Boven of the Free University Hospital Amsterdam [Ovarian (MRI-H-207) line; See: E. Boven et al., Cancer Res., 45, 86 (1985) and E. Boven et al., Eur. J. Clin. Oncol., 21, 1253 (1985)].
The tumour was transplanted s.c. and E.O. 9 was administrated i.v. on days 46 and 53 after transplantation at a dose of 4 and 6 mg/kg.

Ovarian (MRI-H-207) line = format: in vivo, human; details: for T/C % / toxic deaths: days of treatment 0.7
Excerpt: as §1
Mice: C57B1 athymic (nu/nu) female mice, 8 to 10 weeks of age were used for s.c. bilateral implantation of tumour fragments 2 mm diameter.
Treatment: E.O. 9 was dissolved in saline at a concentration of 0.5 mg/ml prior to administration. Drug doses and schedules were derived from studies in experimental murine tumour systems and from orientation studies in non-tumour-bearing nude mice. Treatment was started i.v. when tumours measured 50-150 mm^3. After randomization a group of 6-7 tumour-bearing mice was treated and a group of 5-6 tumour-bearing mice served as control.
Evaluation of efficacy: Tumours were measured twice weekly in three dimensions. Efficacy was expressed as the mean of relative tumour volume in treated animals vs. that in control animals×100 (% T/C). The optimal value was calculated within 35 days after the last injection. Toxic death (dead mice within two weeks after the last injection) were excluded from the evaluation.
MRI-H-207: An undifferentiated adenocarcinoma kindly provided by Dr. A. E. Bogden, Worcester, Mass, with a doubling time of 3-5 days.

`Cn1c(/C=C/CO)c(CO)c2c1C(=O)C=C(N1CC1)C2=O` [E.O. 9, 5-Aziridino-3-hydroxymethyl-1-methyl-2-[1H-indole-4,7-dione]prop-β-en-α-ol] was tested, and the optimal growth inhibition (Breast line) was 51%, the T/C % (Ovarian (MRI-H-207) line; 5 mg/kg) was 3.8% and the toxic deaths (Ovarian (MRI-H-207) line; 5 mg/kg) was 0/7. The T/C % (Ovarian (MRI-H-207) line; 6 mg/kg) was 2.4%, the toxic deaths (Ovarian (MRI-H-207) line; 6 mg/kg) was 1/7 and the optimal growth inhibition (Ovarian (MRI-H-207) line; 5 and 6 mg/kg q8d×2) was 98%.
